From ChEMBL document CHEMBL3124770, “Rugulactone derivatives act as inhibitors of NF-κB activation and modulates the transcription of NF-κB dependent genes in MDA-MB-231cells” (Bioorg Med Chem Lett, 2014)
Activity calls are given as the source filed them. No cut-off for these calls is given here.

Experiments:
MCF7 [1] = assay: Inhibition of NFkappaB activity in estrogen receptor-positive human MCF7 cells at 2 uM after 24 hrs by SEAP reporter assay; assay type: cell-based
MDA-MB-231 [2] = assay: Inhibition of NFkappaB activity in estrogen receptor-negative human MDA-MB-231 cells at 2 uM after 24 hrs by SEAP reporter assay; assay type: cell-based
MCF7 [3] = assay: Cytotoxicity against estrogen receptor-positive human MCF7 cells assessed as cell viability after 72 hrs by MTT assay; assay type: functional, cell-based; details: MCF7, 72 h
MDA-MB-231 [4] = assay: Cytotoxicity against estrogen receptor-negative human MDA-MB-231 cells assessed as cell viability after 72 hrs by MTT assay; assay type: functional, cell-based; details: MDA-MB-231, 72 h
MDA-MB-231 [5] = assay: Reduction in HDAC-8 nuclear expression in estrogen receptor-negative human MDA-MB-231 cells at 2 uM after 24 hrs by Western blotting analysis; assay type: functional, cell-based
MDA-MB-231 [6] = assay: Inhibition of NFkappaB activity in estrogen receptor-negative human MDA-MB-231 cells assessed as retention of NFKappaB/Rel A in cytoplasm at 2 uM after 24 hrs by DAPI/PI staining-based confocal microscopy; assay type: cell-based
MDA-MB-231 [7] = assay: Reduction in HDAC-3 nuclear expression in estrogen receptor-negative human MDA-MB-231 cells at 2 uM after 24 hrs by Western blotting analysis; assay type: functional, cell-based
MDA-MB-231 [8] = assay: Inhibition of NFkappaB activity in estrogen receptor-negative human MDA-MB-231 cells assessed as reduction of Bcl-xL expression at 2 uM after 24 hrs by Western blotting analysis; assay type: cell-based
MDA-MB-231 [9] = assay: Inhibition of NFkappaB activity in estrogen receptor-negative human MDA-MB-231 cells assessed as reduction of cyclin D1 expression at 2 uM after 24 hrs by Western blotting analysis; assay type: cell-based
MDA-MB-231 [10] = assay: Inhibition of NFkappaB activity in estrogen receptor-negative human MDA-MB-231 cells assessed as reduction of p65 expression at 2 uM after 24 hrs by Western blotting analysis; assay type: cell-based
MDA-MB-231 [11] = assay: Effect on p21 gene expression in estrogen receptor-negative human MDA-MB-231 cells at 2 uM after 24 hrs by luciferase reporter gene assay; assay type: functional, cell-based
MDA-MB-231 [12] = assay: Cell cycle arrest in estrogen receptor-negative human MDA-MB-231 cells assessed as accumulation at G2/M phase at 2 uM after 24 hrs by Propidium iodide staining-based flow cytometric analysis (reference value: 26.33 +/- 3.05%); assay type: functional
MDA-MB-231 [13] = assay: Cell cycle arrest in estrogen receptor-negative human MDA-MB-231 cells assessed as accumulation at S phase at 2 uM after 24 hrs by Propidium iodide staining-based flow cytometric analysis (reference value: 19 +/- 1%); assay type: functional
MDA-MB-231 [14] = assay: Cell cycle arrest in estrogen receptor-negative human MDA-MB-231 cells assessed as accumulation at G1 phase at 2 uM after 24 hrs by Propidium iodide staining-based flow cytometric analysis (reference value: 54.66 +/- 2.51%); assay type: functional
MDA-MB-231 [15] = assay: Induction of apoptosis in estrogen receptor-negative human MDA-MB-231 cells assessed as reduced procaspase-3 level at 2 uM after 24 hrs by Western blotting analysis; assay type: functional, cell-based
MDA-MB-231 [16] = assay: Induction of apoptosis in estrogen receptor-negative human MDA-MB-231 cells assessed as increase in Rb cleavage at 2 uM after 24 hrs by Western blotting analysis; assay type: functional, cell-based
MDA-MB-231 [17] = assay: Induction of apoptosis in estrogen receptor-negative human MDA-MB-231 cells assessed as increase in PARP cleavage at 2 uM after 24 hrs by Western blotting analysis; assay type: functional, cell-based
MDA-MB-231 [18] = assay: Cell cycle arrest in estrogen receptor-negative human MDA-MB-231 cells assessed as decrease in CDK2 expression at 2 uM after 24 hrs by Western blotting analysis; assay type: functional, cell-based
MDA-MB-231 [19] = assay: Cell cycle arrest in estrogen receptor-negative human MDA-MB-231 cells assessed as decrease in Cyclin E expression at 2 uM after 24 hrs by Western blotting analysis; assay type: functional, cell-based
MDA-MB-231 [20] = assay: Inhibition of NFkappaB activity in estrogen receptor-negative human MDA-MB-231 cells assessed as inhibition of cyclin D1 promoter activation at 2 uM by chromatin immunoprecipitation assay; assay type: cell-based
MDA-MB-231 [21] = assay: Inhibition of NFkappaB activity in estrogen receptor-negative human MDA-MB-231 cells assessed as cytoplasmic localization of p65 at 2 uM after 24 hrs by ELISA; assay type: cell-based
MDA-MB-231 [22] = assay: Inhibition of NFkappaB activity in estrogen receptor-negative human MDA-MB-231 cells assessed as upregulation of p27 gene expression at 2 uM after 24 hrs by luciferase reporter gene assay relative to control; assay type: cell-based

| Compound | inhibition (MCF7 [1]) | inhibition (MDA-MB-231 [2]) | IC50 (MCF7 [3]) [µM] | IC50 (MDA-MB-231 [4]) [µM] | further results |
| --- | --- | --- | --- | --- | --- |
| CCCCCCCCCCCCCCCC(=O)/C=C/C[C@H]1CC=CC(=O)O1 | Active | Active | 3.79 | 3.98 | – |
| O=C(/C=C/C[C@@H]1CC=CC(=O)O1)CCc1ccc2c(c1)OCO2 | Active | Active | 6.56 | 7.93 | – |
| O=C(/C=C/C[C@H]1CC=CC(=O)O1)CCc1ccco1 | Active | Active | 3.52 | 3.34 | – |
| CCCCCCCCCCCCCCCC(=O)/C=C/C[C@@H]1CC=CC(=O)O1 | Active | Active | 3.96 | 4.11 | – |
| CCCCCCCC/C=C\CCCCCCCC(=O)/C=C/C[C@H]1CC=CC(=O)O1 | Active | Active | 2.7 | 2.96 | Activity (MDA-MB-231 [5]): Active; NF-kappaB activity inhibition (MDA-MB-231 [6]): Active; Activity (MDA-MB-231 [7]): Active; inhibition (MDA-MB-231 [8]): Active; inhibition (MDA-MB-231 [9]): Active; inhibition (MDA-MB-231 [10]): Active; Activity (MDA-MB-231 [11]): inactive; Activity (MDA-MB-231 [12]): 21.3%; Activity (MDA-MB-231 [13]): 8%; Activity (MDA-MB-231 [14]): 70.6% |
| O=C(/C=C/C[C@H]1CC=CC(=O)O1)CCc1cccc(Oc2ccccc2)c1 | Active | Active | 3.36 | 3.2 | – |
| O=C(/C=C/C[C@H]1CC=CC(=O)O1)CCc1c[nH]c2ccccc12 | Active | Active | 3.91 | 3.98 | – |
| CCCCCCCCCCCCCCCCC/C=C/C(=O)/C=C/C[C@@H]1CC=CC(=O)O1 | Active | Active | 3.76 | 4.49 | – |
| O=C(/C=C/C[C@@H]1CC=CC(=O)O1)CCc1cccc(Oc2ccccc2)c1 | Active | Active | 4.56 | 4.91 | – |
| O=C(/C=C/C[C@@H]1CC=CC(=O)O1)CCc1ccco1 | Active | Active | 4.37 | 3.37 | – |
| O=C(/C=C/C[C@H]1CC=CC(=O)O1)CCc1ccc2c(c1)OCO2 | Active | Active | 3.31 | 3.09 | – |
| CCCCCCCCCCCCCCCCCCCC(=O)/C=C/C[C@@H]1CC=CC(=O)O1 | Active | Active | 5.57 | 6.22 | – |
| CCCCCCCCCCCCCCCCCCCC(=O)/C=C/C[C@H]1CC=CC(=O)O1 | Active | Active | 3.12 | 3.58 | – |
| O=C(/C=C/C[C@@H]1CC=CC(=O)O1)CCc1cccc(O)c1 | Active | Active | 5.12 | 6.18 | – |
| CCCCCCCCCCCC(=O)/C=C/C[C@H]1CC=CC(=O)O1 | Active | Active | 4 | 3.16 | – |
| O=C(/C=C/C[C@@H]1CC=CC(=O)O1)CCc1ccccc1 [R-RUGULACTONE] | Active | Active | 3.59 | 3.44 | Activity (MDA-MB-231 [5]): Active; NF-kappaB activity inhibition (MDA-MB-231 [6]): Active; Activity (MDA-MB-231 [7]): Active; Activity (MDA-MB-231 [11]): inactive; Activity (MDA-MB-231 [15]): Active; Activity (MDA-MB-231 [16]): Active; Activity (MDA-MB-231 [17]): Active; Activity (MDA-MB-231 [18]): Active; Activity (MDA-MB-231 [19]): Active; Activity (MDA-MB-231 [12]): 21.66%; Activity (MDA-MB-231 [13]): 8.33%; Activity (MDA-MB-231 [14]): 70% |
| O=C(/C=C/C[C@@H]1CC=CC(=O)O1)CCc1ccc2ccccc2c1 | Active | Active | 4.72 | 4.74 | – |
| O=C(/C=C/C[C@H]1CC=CC(=O)O1)CCc1ccc2ccccc2c1 | Active | Active | 4.48 | 3.64 | – |
| CCCCCCCCCCCC(=O)/C=C/C[C@@H]1CC=CC(=O)O1 | Active | Active | 4.56 | 5.42 | – |
| O=C(/C=C/C[C@H]1CC=CC(=O)O1)CCc1cccc(O)c1 | Active | Active | 4.32 | 6.68 | – |
| CCCCCCCC/C=C\CCCCCCCC(=O)/C=C/C[C@@H]1CC=CC(=O)O1 | Active | Active | 5.12 | 5.54 | – |
| CCCCCCCCCCCCCCCCCC(=O)/C=C/C[C@@H]1CC=CC(=O)O1 | Active | Active | 2.32 | 2.1 | Activity (MDA-MB-231 [5]): Active; NF-kappaB activity inhibition (MDA-MB-231 [6]): Active; Activity (MDA-MB-231 [7]): Active; inhibition (MDA-MB-231 [20]): Active; inhibition (MDA-MB-231 [21]): Active; inhibition (MDA-MB-231 [8]): Active; inhibition (MDA-MB-231 [9]): Active; inhibition (MDA-MB-231 [10]): Active; fold change (FC) (MDA-MB-231 [22]): 2.5; Activity (MDA-MB-231 [11]): inactive; Activity (MDA-MB-231 [15]): Active; Activity (MDA-MB-231 [16]): Active; Activity (MDA-MB-231 [17]): Active; Activity (MDA-MB-231 [18]): Active; Activity (MDA-MB-231 [19]): Active; Activity (MDA-MB-231 [12]): 19.6%; Activity (MDA-MB-231 [13]): 6.33%; Activity (MDA-MB-231 [14]): 74% |
| CCCCCCCCCCCCCCCCC/C=C/C(=O)/C=C/C[C@H]1CC=CC(=O)O1 | Active | Active | 3.04 | 2.87 | Activity (MDA-MB-231 [5]): Active; NF-kappaB activity inhibition (MDA-MB-231 [6]): Active; Activity (MDA-MB-231 [7]): Active; inhibition (MDA-MB-231 [8]): Active; inhibition (MDA-MB-231 [9]): Active; inhibition (MDA-MB-231 [10]): Active; Activity (MDA-MB-231 [11]): inactive; Activity (MDA-MB-231 [12]): 19.3%; Activity (MDA-MB-231 [13]): 8%; Activity (MDA-MB-231 [14]): 72.6% |
| CC(=O)/C=C/C[C@@H]1CC=CC(=O)O1 | Active | Active | 3.36 | 3.07 | Activity (MDA-MB-231 [5]): Active; NF-kappaB activity inhibition (MDA-MB-231 [6]): Active; Activity (MDA-MB-231 [7]): Active; Activity (MDA-MB-231 [11]): inactive; Activity (MDA-MB-231 [15]): Active; Activity (MDA-MB-231 [16]): Active; Activity (MDA-MB-231 [17]): Active; Activity (MDA-MB-231 [18]): Active; Activity (MDA-MB-231 [19]): Active; Activity (MDA-MB-231 [12]): 26%; Activity (MDA-MB-231 [13]): 6%; Activity (MDA-MB-231 [14]): 68% |
| O=C(/C=C/C[C@@H]1CC=CC(=O)O1)CCc1c[nH]c2ccccc12 | Active | Active | 5.73 | 7.08 | – |
| CCCCCCCCCCCCCCCCCC(=O)/C=C/C[C@H]1CC=CC(=O)O1 | Active | Active | 4.32 | 3.93 | – |
